According to ChEMBL document CHEMBL3137667, “[Drug-induced liver injury; fourteenth updated edition of the bibliographic database of liver injuries and related drugs]” (Gastroenterol Clin Biol, 2004):

Experiments:
[1] = human
[2] = Highest frequency of acute liver toxicity observed during clinical trials, expressed as a percentage. [column '% AIGUE' in source]; conditions: human
[3] = human, serum
[4] = human; remark: listed apart in the source
[5] = human, serum; remark: listed apart in the source
[6] = human, serum, 4383 h
[7] = human; remark: listed apart in the source
[8] = human; remark: listed apart in the source
[9] = human; remark: listed apart in the source
[10] = human; remark: listed apart in the source
[11] = human; remark: listed apart in the source
[12] = Highest frequency of moderate liver toxicity observed during clinical trials, expressed as a percentage. [column '% BIOL' in source]; conditions: human
[13] = human; remark: listed apart in the source
[14] = human; remark: listed apart in the source
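For Hepatotoxicity (association with vascular disease) in this document: count of indexed literature references reporting vascular liver injury in humans, e.g. peliosis hepatitis, hepatic veno-occlusive disease or Budd-Chiari syndrome.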
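For Hepatotoxicity (benign tumour) in this document: value is a count of indexed literature references citing a benign tumour confirmed by histopathology.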
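For Hepatotoxicity (choleostasis) in this document: human cholestatic liver injury, shown by histopathology or by peak ALT or AST elevation over alkaline phosphatase ratio below 2, value counts indexed literature reports.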
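For Hepatotoxicity (chronic liver disease) in this document: chronic liver injury confirmed by histopathology or persistently raised serum aminotransferase activity beyond 6 months, value given as the count of indexed literature references.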
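For Hepatotoxicity (cirrhosis) in this document: value is a count of indexed literature references reporting cirrhosis confirmed by histopathology.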
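For Hepatotoxicity (cytolytic) in this document: human cytolytic liver injury, shown by histopathology or by a ratio above 5 of peak ALT or AST elevation to alkaline phosphatase elevation, value counts indexed references.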
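For Hepatotoxicity (granulomatous hepatitis) in this document: value is a count of indexed literature references reporting granulomatous liver disease confirmed by histopathology.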
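For Hepatotoxicity (malignant tumour) in this document: malignant tumour confirmed by histopathology, value gives the count of indexed literature references reporting it.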
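For Hepatotoxicity (severe hepatitis) in this document: human clinical data: severe hepatitis, meaning potentially life-threatening liver failure or clinically observed cases, the value counts how many indexed literature references report it.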
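For Hepatotoxicity (steatosis) in this document: steatosis confirmed by histopathology, value is the count of indexed references.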

| SMILES | Hepatotoxicity (steatosis) [1] | Hepatotoxicity (acute) [2] | Hepatotoxicity (acute) [3] | Hepatotoxicity (granulomatous hepatitis) [4] | Hepatotoxicity (moderate) [5] | Hepatotoxicity (chronic liver disease) [6] | Hepatotoxicity (cirrhosis) [7] | Hepatotoxicity (benign tumour) [8] | Hepatotoxicity (malignant tumour) [9] | Hepatotoxicity (severe hepatitis) [10] | Hepatotoxicity (cytolytic) [11] | Hepatotoxicity (moderate) [12] | Hepatotoxicity (choleostasis) [13] | Hepatotoxicity (association with vascular disease) [14] |
| --- | --- | --- | --- | --- | --- | --- | --- | --- | --- | --- | --- | --- | --- | --- |
| CC1(C)[C@@H](OC(=O)CCC(=O)O)CC[C@]2(C)[C@H]3C(=O)C=C4[C@@H]5C[C@@](C)(C(=O)O)CC[C@]5(C)CC[C@@]4(C)[C@]3(C)CC[C@@H]12 [CARBENOXOLONE] | 0 | 0% | 0 | 0 | 2 | 0 | 0 | 0 | 0 | 0 | 0 | 0% | 0 | 0 |
| Cc1cccc(Nc2ccncc2S(=O)(=O)NC(=O)NC(C)C)c1 [TORSEMIDE] | 0 | 0% | 0 | 0 | 1 | 0 | 0 | 0 | 0 | 0 | 0 | 0.6% | 0 | 0 |
| Cc1ccc2c(-c3ccccc3)nc(=O)n(C(C)C)c2c1 [PROQUAZONE] | 0 | 0% | 0 | 0 | 1 | 0 | 0 | 0 | 0 | 0 | 0 | 1.8% | 0 | 0 |
| O=C(O)[C@@H](S)[C@@H](S)C(=O)O | 0 | 0% | 0 | 0 | 3 | 0 | 0 | 0 | 0 | 0 | 0 | 56.7% | 0 | 0 |
| COc1ccc(C(=O)N2CCN(c3ccc4c(c3)CCC(=O)N4)CC2)cc1OC [VESNARINONE] | 0 | 0% | 0 | 0 | 1 | 0 | 0 | 0 | 0 | 0 | 0 | 0.4% | 0 | 0 |
| Cc1oc(=O)oc1COC(=O)[C@@H]1N2C(=O)[C@@H](NC(=O)[C@H](N)c3ccccc3)[C@H]2SC1(C)C [LENAMPICILLIN] | 0 | 0% | 0 | 0 | 9 | 0 | 0 | 0 | 0 | 0 | 0 | 22% | 0 | 0 |
| CO[C@@H]1O[C@H](CO)[C@H](O)[C@H](O[C@@H]2O[C@@H](C(=O)O)[C@@H](OC)[C@H](O)[C@H]2O)[C@H]1NC(C)=O | 0 | 0% | 0 | 0 | 1 | 0 | 0 | 0 | 0 | 0 | 0 | 0% | 0 | 0 |
| Cn1nnc2c(C(N)=O)ncn2c1=O [TEMOZOLOMIDE] | 0 | 3% | 1 | 0 | 1 | 0 | 0 | 0 | 0 | 0 | 1 | 47.5% | 0 | 0 |
| CC1(C)S[C@@H]2[C@H](NC(=O)[C@H](N)c3ccccc3)C(=O)N2[C@H]1C(=O)OCOC(=O)[C@@H]1N2C(=O)C[C@H]2S(=O)(=O)C1(C)C [SULTAMICILLIN] | 0 | 0.2% | 1 | 0 | 61 | 0 | 0 | 0 | 0 | 0 | 0 | 43% | 1 | 0 |
| COC(=O)Nc1nc2cc(C(=O)c3ccc(F)cc3)ccc2[nH]1 [FLUBENDAZOLE] | 0 | 0% | 1 | 0 | 1 | 0 | 0 | 0 | 0 | 0 | 1 | 6% | 0 | 0 |
| O=C(CCCN1CCN(c2ccc(F)cc2)CC1)NC1c2ccccc2CSc2ccccc21 (stereo not given) [MONATEPIL] | 0 | 0% | 0 | 0 | 1 | 0 | 0 | 0 | 0 | 0 | 0 | 4.5% | 0 | 0 |
| CC(=O)Nc1c(I)c(NC(C)=O)c(I)c(C(=O)O)c1I [DIATRIZOIC ACID] | 0 | 0% | 0 | 0 | 1 | 0 | 0 | 0 | 0 | 0 | 0 | 0% | 0 | 0 |
| CC(C)[C@H](N)C(=O)OCC(CO)OCn1cnc2c(=O)nc(N)[nH]c21 (stereo not given in full) [VALGANCICLOVIR] | 0 | 0% | 0 | 0 | 1 | 0 | 0 | 0 | 0 | 0 | 0 | 3% | 0 | 0 |
| NCCCNc1ccc2c3c(nn2CCNCCO)-c2c(O)ccc(O)c2C(=O)c13 [PIROXANTRONE] | 0 | 0% | 0 | 0 | 4 | 0 | 0 | 0 | 0 | 0 | 0 | 9.1% | 0 | 0 |
| COC(=O)C[C@](O)(CCCC(C)(C)O)C(=O)O[C@@H]1C(OC)=C[C@]23CCCN2CCc2cc4c(cc2[C@H]13)OCO4 [OMACETAXINE MEPESUCCINATE] | 0 | 0% | 0 | 0 | 3 | 0 | 0 | 0 | 0 | 0 | 0 | 15% | 0 | 0 |
